Laboratory results as given in patent US8119645B2, “Fungicide hydroximoyl-tetrazole derivatives” (Bayer Cropscience AG, priority 2006, dated 2012).

Experiment: logP by reversed-phase HPLC (EEC Directive 79/831 Annex V.A8)
Type: physicochemical
Settings: for LogP: HPLC C18, 40° C., 0.1% aqueous formic acid / acetonitrile gradient

| chromatographic logP | Compound | LogP |
| --- | --- | --- |
|  | Cn1nnnc1C(=NOCc1csc(NC(=O)c2ccccc2)n1)c1csc(-c2ccccc2)n1 [Compound 169] | 3.62 |
|  | Cc1nnnn1C(=NOCc1csc(NC(=S)NCCc2ccccc2)n1)c1ccsc1 [Compound 47] | 3.65 |
|  | Cn1nnnc1C(=NOCc1csc(NC(=O)C2CC2)n1)c1csc(-c2ccccc2)n1 [Compound 168] | 3.85 |
|  | CCc1nnnn1C(=NOCc1csc(NC(=O)C(C)C)n1)c1ccsc1 [Compound 43] | 3.04 |
|  | Cc1nnnn1C(=NOCc1csc(NC(=O)Cc2ccccc2)n1)c1ccc(-c2ccccc2)s1 [Compound 54] | 4.08 |
|  | CCCCCC(=O)Nc1nc(CON=C(c2ccc(Cl)s2)n2nnnc2C)cs1 [Compound 106] | 4.12 |
|  | Cc1ccc(C(=NOCc2csc(NC(=O)OCCc3ccccc3)n2)n2nnnc2C)s1 [Compound 123] | 3.88 |
|  | CCCC(=O)Nc1nc(CON=C(c2ccc(C)s2)n2nnnc2C)cs1 [Compound 114] | 2.88 |
| 1.32 | Cc1nnnn1/C(=N/OCc1csc(N)n1)c1ccsc1 [Compound 20, O-(2-Amino-1,3-thiazol-4-yl)methyl-(thien-3-yl)-(5-methyltetrazol-1-yl)methanone oxime] |  |
|  | Cc1ccc(C(=NOCc2csc(NC(=O)C3CC3)n2)n2nnnc2C)s1 [Compound 119] | 2.84 |
|  | CCCCCC(=O)Nc1nc(CON=C(c2ccc(-c3ccccc3)o2)n2nnnc2C)cs1 [Compound 133] | 3.8 |
|  | Cc1nnnn1C(=NOCc1cccc(NC(=O)C(C)(C)C)n1)c1ccsc1 [Compound 37] | 3 |
| 3.46 | Cn1nnnc1/C(=N/OCc1cccc(N2C(=O)c3ccccc3C2=O)n1)c1csc(-c2ccccc2)n1 [Compound 173, O-(2-Phtalimidopyridin-6-yl)methyl-(2-phenyl-1,3-thiazol-4-yl)-(1-methyitetrazol-5-yl)methanone oxime] |  |
|  | CCc1nnnn1C(=NOCc1csc(NC(=O)C(C)(C)C)n1)c1ccsc1 [Compound 42] | 3.35 |
|  | CCCCCC(=O)Nc1nc(CON=C(c2ccc(C)o2)n2nnnc2C)cs1 [Compound 64] | 3.26 |
|  | CCCCCC(=O)Nc1nc(CON=C(c2ccc(-c3ccc(Cl)c(Cl)c3)o2)n2nnnc2C)cs1 [Compound 85] | 4.78 |

| chromatographic logP | Compound | LogP |
| --- | --- | --- |
|  | Cc1ccc(C(=NOCc2csc(NC(=O)Cc3ccccc3)n2)n2nnnc2C)o1 [Compound 65] | 2.92 |
|  | Cc1nnnn1C(=NOCc1csc(NC(=O)CCCc2ccccc2)n1)c1ccc(Cl)s1 [Compound 107] | 4.12 |
|  | Cc1nnnn1C(=NOCc1csc(NC(=O)Cc2ccccc2)n1)c1ccc(Br)s1 [Compound 93] | 3.53 |
| 1.57 | Cn1nnnc1/C(=N/OCc1cccc(N)n1)c1csc(-c2ccccc2)n1 [Compound 174, O-(2-Aminopyridin-6-yl)methyl-(2-phenyl-1,3-thiazol-4-yl)-(1-methyltetrazol-5-yl)methanone oxime] |  |
|  | COCCOCC(=O)Nc1nc(CON=C(c2ccc(Cl)s2)n2nnnc2C)cs1 [Compound 111] | 2.88 |
|  | Cc1nnnn1C(=NOCc1csc(NC(=O)c2ccccc2)n1)c1ccsc1 [Compound 35] | 2.93 |
|  | Cc1nnnn1C(=NOCc1cccc(NC(=O)c2ccccc2)n1)c1ccsc1 [Compound 38] | 3.01 |
|  | Cc1nnnn1C(=NOCc1csc(NC(=O)Cc2ccccc2)n1)c1ccsc1 [Compound 32] | 2.9 |
|  | Cc1nnnn1C(=NOCc1csc(NC(=O)Nc2ccccc2)n1)c1ccsc1 [Compound 21] | 2.88 |
|  | CCCCCCCCC(=O)Nc1nc(CON=C(c2ccsc2Cl)n2nnnc2C)cs1 [Compound 11] | 4.77 |
|  | Cc1nnnn1C(=NOCc1csc(NC(=O)Cc2ccccc2)n1)c1ccsc1Cl [Compound 10] | 3.21 |
|  | Cc1nnnn1C(=NOCc1csc(N)n1)c1ccc(Cl)s1 [Compound 100] | 2.02 |
|  | CCCCCOC(=O)Nc1cccc(CON=C(c2ccc(C)o2)n2nnnc2C)n1 [Compound 74] | 4.04 |
|  | Cc1ccc(C(=NOCc2csc(NC(=O)CCc3ccccc3)n2)n2nnnc2C)s1 [Compound 122] | 3.54 |
|  | COCCOCC(=O)Nc1nc(CON=C(c2ccc(Br)s2)n2nnnc2C)cs1 [Compound 98] | 2.94 |
